Patent US20140031278A1, “Novel Glucagon Analogues” (NOVO NORDISK A/S, priority 2011, published 2014)
*1 amine or outer side, *2 acyl side, *3 side chain or, on linkers, in order; H or OH if unused. Where a SMILES comes first, the peptide text is derived from it. Side-chain parts run from the residue outwards. [ ]: non-standard residue; d: D form. The star is where a group is joined. γGlu = O=C(O)[C@H](CCC(=O)[*:2])N[*:1]; εLys = N[C@@H](CCCCN[*:1])C(=O)[*:2]; Suc = O=C(CCC(=O)[*:2])[*:1]; Pentanoyl = CCCCC(=O)*; Aib = CC(C)(N)C(=O)O; Butyryl = CCCC(=O)*

Target: T1, glucagon receptor (Homo sapiens, UniProt P47871)
T1 construct: expressed in transfected cells
Assay: Assay (I) Glucagon activity (cAMP biosensor, FLIPR)
Type: cell-based
Settings: HEK-293 cells with cloned glucagon receptor and cAMP biosensor; end point after 6 minutes
In short: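 HEK-293 cells expressing glucagon receptor with membrane cAMP biosensor (ACTOne), calcium-dye loaded with probenecid and a PDE inhibitor.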

T1 sequence (P47871 26-477): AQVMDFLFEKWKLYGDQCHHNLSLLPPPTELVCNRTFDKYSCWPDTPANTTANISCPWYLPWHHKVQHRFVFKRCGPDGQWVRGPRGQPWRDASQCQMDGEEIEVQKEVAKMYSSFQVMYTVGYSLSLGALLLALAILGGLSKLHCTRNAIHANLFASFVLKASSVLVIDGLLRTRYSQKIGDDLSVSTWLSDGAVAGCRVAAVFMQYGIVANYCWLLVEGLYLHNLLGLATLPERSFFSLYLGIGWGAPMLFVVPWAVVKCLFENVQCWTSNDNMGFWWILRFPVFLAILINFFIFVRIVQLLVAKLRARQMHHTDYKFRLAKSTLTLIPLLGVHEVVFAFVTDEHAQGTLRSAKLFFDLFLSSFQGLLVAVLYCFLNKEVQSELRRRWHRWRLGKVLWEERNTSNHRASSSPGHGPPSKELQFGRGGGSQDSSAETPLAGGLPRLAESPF

Point of comparison: CCCCC(=O)N[C@@H](CCC(=O)N[C@@H](CCC(=O)N[C@@H](CCC(=O)N[C@@H](CCC(=O)NCCCC[C@H](NC(=O)[C@@H](NC(=O)[C@H](Cc1ccccc1)NC(=O)[C@H](CC(=O)O)NC(=O)[C@H](C)NC(=O)[C@H](C)NC(=O)[C@H](CCCNC(=N)N)NC(=O)[C@H](CCCNC(=N)N)NC(=O)[C@H](CC(C)C)NC(=O)[C@H](CC(=O)O)NC(=O)[C@H](CC(C)C)NC(=O)[C@H](Cc1ccc(O)cc1)NC(=O)[C@H](CCCNC(=N)N)NC(=O)[C@H](CO)NC(=O)[C@H](Cc1ccc(O)cc1)NC(=O)[C@H](CC(=O)O)NC(=O)[C@H](CO)NC(=O)[C@@H](NC(=O)[C@H](Cc1ccccc1)NC(=O)[C@@H](NC(=O)CNC(=O)[C@H](CCC(N)=O)NC(=O)[C@H](CO)NC(=O)[C@@H](N)Cc1c[nH]cn1)[C@@H](C)O)[C@@H](C)O)C(C)C)C(=O)N[C@@H](Cc1c[nH]c2ccccc12)C(=O)N[C@@H](CC(C)C)C(=O)N[C@@H](CC(C)C)C(=O)N[C@@H](CO)C(=O)N[C@H](C(=O)O)[C@@H](C)O)C(=O)O)C(=O)O)C(=O)O)C(=O)O [Example 67] (H-HSQGTFTSDYSRYLDLRRAADFVK([γGlu-γGlu-γGlu-γGlu-Pentanoyl])WLLST-OH), EC50 0.022 nM. Against it:
- CC(=O)N[C@@H](CCC(=O)N[C@@H](CCC(=O)N[C@@H](CCC(=O)N[C@@H](CCC(=O)NCCCC[C@H](NC(=O)[C@@H](NC(=O)[C@H](Cc1ccccc1)NC(=O)[C@H](CCC(=O)O)NC(=O)[C@H](C)NC(=O)[C@H](C)NC(=O)[C@H](CCCNC(=N)N)NC(=O)[C@H](CCCNC(=N)N)NC(=O)[C@@H](NC(=O)[C@H](CC(=O)O)NC(=O)[C@H](CC(C)C)NC(=O)[C@H](Cc1ccc(O)cc1)NC(=O)[C@H](CCCCN)NC(=O)[C@H](CO)NC(=O)[C@H](Cc1ccc(O)cc1)NC(=O)[C@H](CC(=O)O)NC(=O)[C@H](CO)NC(=O)[C@@H](NC(=O)[C@H](Cc1ccccc1)NC(=O)[C@@H](NC(=O)CNC(=O)[C@H](Cc1c[nH]cn1)NC(=O)C(C)(C)NC(=O)[C@@H](N)Cc1c[nH]cn1)[C@@H](C)O)[C@@H](C)O)C(C)C)C(C)C)C(=O)N[C@@H](Cc1c[nH]c2ccccc12)C(=O)N[C@@H](CC(C)C)C(=O)N[C@@H](CC(C)C)C(=O)N[C@@H](CO)C(=O)N[C@H](C(=O)O)[C@@H](C)O)C(=O)O)C(=O)O)C(=O)O)C(=O)O [Example 48, N^ε24-[(4S)-4-[[(4S)-4-[[(4S)-4-[[(4S)-4-acetamido-4-carboxybutanoyl]amino]-4-carboxybutanoyl]amino]-4-carboxybutanoyl]amino]-4-carboxybutanoyl]-[Aib^2,His^3,Val^16,Ala^20,Glu^21,Lys^24,Leu^27,Ser^28]-Glucagon] (H-H[Aib]HGTFTSDYSKYLDVRRAAEFVK([γGlu-γGlu-γGlu-γGlu-Ac])WLLST-OH) — 4.4-fold lower, 0.005 nM
- CC(=O)N[C@@H](CCC(=O)N[C@@H](CCC(=O)N[C@@H](CCC(=O)N[C@@H](CCC(=O)NCCCC[C@H](N)C(=O)NCCCC[C@H](NC(=O)[C@H](CC(=O)O)NC(=O)[C@H](CC(C)C)NC(=O)[C@H](Cc1ccc(O)cc1)NC(=O)[C@H](CCCCN)NC(=O)[C@H](CO)NC(=O)[C@H](Cc1ccc(O)cc1)NC(=O)[C@H](CC(=O)O)NC(=O)[C@H](CO)NC(=O)[C@@H](NC(=O)[C@H](Cc1ccccc1)NC(=O)[C@@H](NC(=O)CNC(=O)[C@H](CCC(N)=O)NC(=O)[C@H](CO)NC(=O)[C@@H](N)Cc1c[nH]cn1)[C@@H](C)O)[C@@H](C)O)C(=O)N[C@@H](CCCNC(=N)N)C(=O)N[C@@H](C)C(=O)N[C@@H](C)C(=O)N[C@@H](CCC(N)=O)C(=O)N[C@@H](CC(=O)O)C(=O)N[C@@H](Cc1ccccc1)C(=O)N[C@H](C(=O)N[C@@H](CCC(N)=O)C(=O)N[C@@H](Cc1c[nH]c2ccccc12)C(=O)N[C@@H](CC(C)C)C(=O)N[C@@H](CC(C)C)C(=O)N[C@@H](CO)C(=O)N[C@H](C(N)=O)[C@@H](C)O)C(C)C)C(=O)O)C(=O)O)C(=O)O)C(=O)O [Example 59] (H-HSQGTFTSDYSKYLDK([εLys-γGlu-γGlu-γGlu-γGlu-Ac])RAAQDFVQWLLST-NH2) — 1.7-fold lower, 0.013 nM
- CC(=O)N[C@@H](CCC(=O)N[C@@H](CCC(=O)N[C@@H](CCC(=O)N[C@@H](CCC(=O)NCCCC[C@H](NC(=O)[C@@H](NC(=O)[C@H](Cc1ccccc1)NC(=O)[C@H](CC(=O)O)NC(=O)[C@H](C)NC(=O)[C@H](C)NC(=O)[C@H](CCCNC(=N)N)NC(=O)[C@H](CCCNC(=N)N)NC(=O)[C@H](CC(C)C)NC(=O)[C@H](CC(=O)O)NC(=O)[C@H](CC(C)C)NC(=O)[C@H](Cc1ccc(O)cc1)NC(=O)[C@H](CCCCN)NC(=O)[C@H](CO)NC(=O)[C@@H](NC(=O)[C@H](CC(=O)O)NC(=O)[C@H](CO)NC(=O)[C@@H](NC(=O)[C@H](Cc1ccccc1)NC(=O)[C@@H](NC(=O)CNC(=O)[C@H](Cc1c[nH]cn1)NC(=O)[C@H](C)NC(=O)[C@@H](N)Cc1c[nH]cn1)[C@@H](C)O)[C@@H](C)O)C(C)C)C(C)C)C(=O)N[C@@H](Cc1c[nH]c2ccccc12)C(=O)N[C@@H](CC(C)C)C(=O)N[C@@H](CC(C)C)C(=O)N[C@@H](CO)C(=O)N[C@H](C(=O)O)[C@@H](C)O)C(=O)O)C(=O)O)C(=O)O)C(=O)O [Example 62, N^ε24-[(4S)-4-[[(4S)-4-[[(4S)-4-[[(4S)-4-acetamido-4-carboxybutanoyl]amino]-4-carboxybutanoyl]amino]-4-carboxybutanoyl]amino]-4-carboxybutanoyl]-[Ala^2,His^3,Val^10,Leu^16,Ala^20,Lys^24,Leu^27,Ser^28]-Glucagon] (H-HAHGTFTSDVSKYLDLRRAADFVK([γGlu-γGlu-γGlu-γGlu-Ac])WLLST-OH) — 2.4-fold higher, 0.052 nM
- CCCC(=O)N[C@@H](CCC(=O)N[C@@H](CCC(=O)N[C@@H](CCC(=O)N[C@@H](CCC(=O)NCCCC[C@H](NC(=O)[C@@H](NC(=O)[C@H](Cc1ccccc1)NC(=O)[C@H](CC(=O)O)NC(=O)[C@H](C)NC(=O)[C@H](C)NC(=O)[C@H](CCCNC(=N)N)NC(=O)[C@H](CCCNC(=N)N)NC(=O)[C@H](CC(C)C)NC(=O)[C@H](CC(=O)O)NC(=O)[C@H](CC(C)C)NC(=O)[C@H](Cc1ccc(O)cc1)NC(=O)[C@H](CCCNC(=N)N)NC(=O)[C@H](CO)NC(=O)[C@H](Cc1ccc(O)cc1)NC(=O)[C@H](CC(=O)O)NC(=O)[C@H](CO)NC(=O)[C@@H](NC(=O)[C@H](Cc1ccccc1)NC(=O)[C@@H](NC(=O)CNC(=O)[C@H](CCC(N)=O)NC(=O)[C@H](CO)NC(=O)[C@@H](N)Cc1c[nH]cn1)[C@@H](C)O)[C@@H](C)O)C(C)C)C(=O)N[C@@H](Cc1c[nH]c2ccccc12)C(=O)N[C@@H](CC(C)C)C(=O)N[C@@H](CC(C)C)C(=O)N[C@@H](CO)C(=O)N[C@H](C(=O)O)[C@@H](C)O)C(=O)O)C(=O)O)C(=O)O)C(=O)O [Example 65, N^ε24-[(4S)-4-[[(4S)-4-[[(4S)-4-[[(4S)-4-(butanoylamino)-4-carboxybutanoyl]amino]-4-carboxybutanoyl]amino]-4-carboxybutanoyl]amino]-4-carboxybutanoyl]-[Arg^12,Leu^16,Ala^20,Lys^24,Leu^27,Ser^28]-Glucagon] (H-HSQGTFTSDYSRYLDLRRAADFVK([γGlu-γGlu-γGlu-γGlu-Butyryl])WLLST-OH) — within 1.5-fold, 0.021 nM
- CC(C)C[C@H](NC(=O)[C@H](CC(=O)O)NC(=O)[C@H](CC(C)C)NC(=O)[C@H](Cc1ccc(O)cc1)NC(=O)[C@H](CCCNC(=N)N)NC(=O)[C@H](CO)NC(=O)[C@H](Cc1ccc(O)cc1)NC(=O)[C@H](CC(=O)O)NC(=O)[C@H](CO)NC(=O)[C@@H](NC(=O)[C@H](Cc1ccccc1)NC(=O)[C@@H](NC(=O)CNC(=O)[C@H](CCC(N)=O)NC(=O)[C@H](CO)NC(=O)[C@@H](N)Cc1c[nH]cn1)[C@@H](C)O)[C@@H](C)O)C(=O)N[C@@H](CCCNC(=N)N)C(=O)N[C@@H](CCCNC(=N)N)C(=O)N[C@@H](C)C(=O)N[C@@H](C)C(=O)N[C@@H](CC(=O)O)C(=O)N[C@@H](Cc1ccccc1)C(=O)N[C@H](C(=O)N[C@@H](CCCCNC(=O)CC[C@H](NC(=O)CC[C@H](NC(=O)CC[C@H](NC(=O)CC[C@H](NC(=O)CCC(=O)O)C(=O)O)C(=O)O)C(=O)O)C(=O)O)C(=O)N[C@@H](Cc1c[nH]c2ccccc12)C(=O)N[C@@H](CC(C)C)C(=O)N[C@@H](CC(C)C)C(=O)N[C@@H](CO)C(=O)N[C@H](C(=O)O)[C@@H](C)O)C(C)C [Example 66, N^ε24-[(4S)-4-carboxy-4-[[(4S)-4-carboxy-4-[[(4S)-4-carboxy-4-[[(4S)-4-carboxy-4-(3-carboxypropanoylamino)butanoyl]amino]butanoyl]amino]butanoyl]amino]butanoyl]-[Arg^12,Leu^16,Ala^20,Lys^24,Leu^27,Ser^28]-Glucagon] (H-HSQGTFTSDYSRYLDLRRAADFVK([γGlu-γGlu-γGlu-γGlu-Suc])WLLST-OH) — within 1.5-fold, 0.02 nM

Tested on: not listed separately
Assay: ThT fibrillation assay for physical stability (lag time, recovery)
Type: physicochemical
Settings: absence of increased ThT fluorescence noted as lag time of 45 hours
Description: This has traditionally been measured by visual inspection of the sample. However, that kind of measurement is very subjective and depending on the observer. Therefore, the application of a small molecule indicator probe is much more advantageous. […] Enzymol.
Here, F is the ThT fluorescence at the time t.
The lag-time corresponds to the interval in which the critical mass of nucleus is built up and the apparent rate constant is the rate with which the fibril itself is formed.
Samples were prepared freshly before each assay. […] The pH of the sample was adjusted to the desired value using appropriate amounts of concentrated NaOH and HCl.
The plate was sealed with Scotch Pad (Qiagen).
Each run was initiated by incubating the plate at the assay temperature for 10 min. The plate was measured every 20 minutes for a desired period of time. Between each measurement, the plate was shaken and heated as described.
The supernatant was filtered through a 0.22 μm filter and an aliquot was transferred to a HPLC vial.
The data set may be fitted to Eq. (1).

In the case of CC(=O)N[C@@H](CCC(=O)N[C@@H](CCC(=O)N[C@@H](CCC(=O)N[C@@H](CCC(=O)NCCCC[C@H](NC(=O)[C@@H](NC(=O)[C@H](Cc1ccccc1)NC(=O)[C@H](CCC(=O)O)NC(=O)[C@H](C)NC(=O)[C@H](C)NC(=O)[C@H](CCCNC(=N)N)NC(=O)[C@H](CCCNC(=N)N)NC(=O)[C@@H](NC(=O)[C@H](CC(=O)O)NC(=O)[C@H](CC(C)C)NC(=O)[C@H](Cc1ccc(O)cc1)NC(=O)[C@H](CCCCN)NC(=O)[C@H](CO)NC(=O)[C@H](Cc1ccc(O)cc1)NC(=O)[C@H](CC(=O)O)NC(=O)[C@H](CO)NC(=O)[C@@H](NC(=O)[C@H](Cc1ccccc1)NC(=O)[C@@H](NC(=O)CNC(=O)[C@H](Cc1c[nH]cn1)NC(=O)C(C)(C)NC(=O)[C@@H](N)Cc1c[nH]cn1)[C@@H](C)O)[C@@H](C)O)C(C)C)C(C)C)C(=O)N[C@@H](Cc1c[nH]c2ccccc12)C(=O)N[C@@H](CC(C)C)C(=O)N[C@@H](CC(C)C)C(=O)N[C@@H](CO)C(=O)N[C@H](C(=O)O)[C@@H](C)O)C(=O)O)C(=O)O)C(=O)O)C(=O)O [Example 48, N^ε24-[(4S)-4-[[(4S)-4-[[(4S)-4-[[(4S)-4-acetamido-4-carboxybutanoyl]amino]-4-carboxybutanoyl]amino]-4-carboxybutanoyl]amino]-4-carboxybutanoyl]-[Aib^2,His^3,Val^16,Ala^20,Glu^21,Lys^24,Leu^27,Ser^28]-Glucagon] (H-H[Aib]HGTFTSDYSKYLDVRRAAEFVK([γGlu-γGlu-γGlu-γGlu-Ac])WLLST-OH), the “ThT assay [Lag time]” value is reported as 14 h.
